Experimental findings from patent US10981894B2, “Melanocortin subtype-2 receptor (MC2R) antagonists and uses thereof” (Crinetics Pharmaceuticals, Inc., priority 2018, dated 2021) are described below.

For the experiment, the target named is hMC2 receptor (Homo sapiens, UniProt Q01718). The experiment can be described thus: hMC2 membrane binding assay ([125I]ACTH (1-39) Tyr23, SPA). On the set-up: scale not given here. The conditions noted are these: crude hMC2R membranes from CRE-bla-CHO-K1 cells expressing hMC2 receptor and hMRAP; [125I]ACTH (1-39) Tyr23 0.2 nM; 1.5 hours at room temperature; read-out: MC2R binding potency. A digest of the protocol: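 Ki comes from non-linear regression of SPA scintillation counts. Displacement of 0.2 nM [125I]ACTH(1-39) Tyr23 by compound dose series (usually 0–10,000 nM final) ran 1.5 h at room temperature. Membranes came from CHO-K1 CRE-bla cells stably expressing hMC2R plus hMRAP, bead-coupled in pH 7.4 buffer with 0.2% BSA.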
hMC2 receptor, sequence (Q01718 whole entry): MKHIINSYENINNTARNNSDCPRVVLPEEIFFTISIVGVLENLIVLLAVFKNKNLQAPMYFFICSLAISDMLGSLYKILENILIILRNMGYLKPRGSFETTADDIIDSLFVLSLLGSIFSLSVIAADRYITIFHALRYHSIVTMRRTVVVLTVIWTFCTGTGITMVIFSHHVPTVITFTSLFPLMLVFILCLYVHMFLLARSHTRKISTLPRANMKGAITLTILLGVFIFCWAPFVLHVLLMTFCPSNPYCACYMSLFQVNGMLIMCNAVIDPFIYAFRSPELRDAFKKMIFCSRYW
hMC2 receptor, sequence (Q8TCY5 whole entry partner): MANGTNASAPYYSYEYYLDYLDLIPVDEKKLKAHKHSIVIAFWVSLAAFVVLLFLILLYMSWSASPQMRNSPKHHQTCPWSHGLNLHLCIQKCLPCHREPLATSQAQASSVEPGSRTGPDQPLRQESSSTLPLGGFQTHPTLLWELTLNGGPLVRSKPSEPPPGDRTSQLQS

In the case of `CCOc1ncccc1-c1ccc(N2CCN(C(=O)c3ccc(OC)nc3C(F)(F)F)C[C@H]2CC)c(C(=O)NCC2CN(C)C2)n1` [Compound 1-242, 2′-ethoxy-5-[(2R)-2-ethyl-4-[6-methoxy-2-(trifluoromethyl)pyridine-3-carbonyl]piperazin-1-yl]-N-[(1-methylazetidin-3-yl)methyl]-[2,3′-bipyridine]-6-carboxamide], the Ki was < 10 nM.
`CCOc1ncccc1-c1ccc(N2CCN(C(=O)c3ccc(Cl)cc3C#N)C[C@H]2CC)c(C(=O)NCCNC)n1` [Compound 1-171, 5-[(2R)-4-(4-chloro-2-cyanobenzoyl)-2-ethylpiperazin-1-yl]-2′-ethoxy-N-[2-(methylamino)ethyl]-[2,3′-bipyridine]-6-carboxamide]: the Ki was < 10 nM.
Regarding `CCOc1ncccc1-c1ccc(N2CCN(C(=O)c3ccc(Cl)cc3C(F)F)C[C@H]2CC)c(C(=O)NCCN(C)C)n1` [Compound 1-210, 5-[(2R)-4-[4-chloro-2-(difluoromethyl)benzoyl]-2-ethylpiperazin-1-yl]-N-[2-(dimethylamino)ethyl]-2′-ethoxy-[2,3′-bipyridine]-6-carboxamide], the Ki is < 10 nM.
Regarding `CCOc1ncccc1-c1ccc(N2CCN(C(=O)c3ccc(F)cc3C(F)(F)F)C[C@H]2CC)c(C(=O)NCCNC)n1` [Compound 1-136, 2′-ethoxy-5-[(2R)-2-ethyl-4-[4-fluoro-2-(trifluoromethyl)benzoyl]piperazin-1-yl]-N-[2-(methylamino)ethyl]-[2,3′-bipyridine]-6-carboxamide], the Ki was < 10 nM.
On to `CCOc1ccccc1-c1ccc(N2CCN(C(=O)c3ccc(Cl)cc3C(F)(F)F)C[C@H]2CC)c(C(=O)NCCN)c1` [Compound 1-25, N-(2-aminoethyl)-4-[(2R)-4-[4-chloro-2-(trifluoromethyl)benzoyl]-2-ethylpiperazin-1-yl]-2′-ethoxy-[1,1′-biphenyl]-3-carboxamide], for which the Ki was < 10 nM.
As for `CCOc1ncccc1-c1ccc(N2CCN(C(=O)c3ccc(OC)nc3C(F)(F)F)C[C@H]2CC)c(C(=O)N[C@H]2CN(C)C[C@H]2F)n1` [Compound 1-296, 2′-ethoxy-5-[(2R)-2-ethyl-4-[6-methoxy-2-(trifluoromethyl)pyridine-3-carbonyl]piperazin-1-yl]-N-[(3S,4R)-4-fluoro-1-methylpyrrolidin-3-yl]-[2,3′-bipyridine]-6-carboxamide], the Ki is < 10 nM.
`CCOc1ncccc1-c1ccc(N2CCN(C(=O)c3ccc(OC)nc3C(F)(F)F)C[C@H]2CC)c(C(=O)N[C@@H]2CNC[C@H]2F)n1` [Compound 1-289, 2′-ethoxy-5-[(2R)-2-ethyl-4-[6-methoxy-2-(trifluoromethyl)pyridine-3-carbonyl]piperazin-1-yl]-N-[(3R,4R)-4-fluoropyrrolidin-3-yl]-[2,3′-bipyridine]-6-carboxamide]: the Ki was < 10 nM.
As for `CCOc1ncccc1-c1ccc(N2CCN(C(=O)c3ccc(Cl)cc3C(F)(F)F)C[C@H]2CC)c(C(=O)N[C@H]2CCNC2)n1` [Compound 1-214, 5-[(2R)-4-[4-chloro-2-(trifluoromethyl)benzoyl]-2-ethylpiperazin-1-yl]-2′-ethoxy-N-[(3S)-pyrrolidin-3-yl]-[2,3′-bipyridine]-6-carboxamide], the Ki is < 10 nM.
On to `CCOc1ncccc1-c1ccc(N2CCN(C(=O)N3CCc4cc(F)cc(Cl)c43)C[C@H]2CC)c(C(=O)N[C@H]2CCN(C)C2)n1` [Compound 1-419, 5-[(2R)-4-(7-chloro-5-fluoro-2,3-dihydro-1H-indole-1-carbonyl)-2-ethylpiperazin-1-yl]-2′-ethoxy-N-[(3S)-1-methylpyrrolidin-3-yl]-[2,3′-bipyridine]-6-carboxamide], for which the Ki is < 10 nM.
In the case of `CCOc1ncccc1-c1ccc(N2CCN(C(=O)N3CCc4cccc(C)c43)C[C@H]2CC)c(C(=O)N[C@@H]2CCNC2)n1` [Compound 1-360, 2′-ethoxy-5-[(2R)-2-ethyl-4-(7-methyl-2,3-dihydro-1H-indole-1-carbonyl)piperazin-1-yl]-N-[(3R)-pyrrolidin-3-yl]-[2,3′-bipyridine]-6-carboxamide], the Ki was < 10 nM.
In the case of `CCOc1ncccc1-c1ccc(N2CCN(C(=O)n3ccc4cccc(Cl)c43)C[C@H]2CC)c(C(=O)N[C@@H]2CCN(C)C2)n1` [Compound 1-428, 5-[(2R)-4-(7-chloro-1H-indole-1-carbonyl)-2-ethylpiperazin-1-yl]-2′-ethoxy-N-[(3R)-1-methylpyrrolidin-3-yl]-[2,3′-bipyridine]-6-carboxamide], the Ki was < 10 nM.
In the case of `CCOc1ncccc1-c1ccc(N2CCN(C(=O)c3ccc(Cl)cc3N3CC[C@H](CN)C3)C[C@H]2CC)c(C(=O)NCCN)c1` [Compound 1-40, N-(2-aminoethyl)-2-[(2R)-4-{2-[(3R)-3-(aminomethyl)pyrrolidin-1-yl]-4-chlorobenzoyl}-2-ethylpiperazin-1-yl]-5-(2-ethoxypyridin-3-yl)benzamide], the Ki was < 10 nM.
The value for `CCOc1ncccc1-c1ccc(N2CCN(C(=O)c3ccc(Cl)cc3C(F)(F)F)C[C@H]2CC)c(C(=O)NCC2CN(C)C2)n1` [Compound 1-223, 5-[(2R)-4-[4-chloro-2-(trifluoromethyl)benzoyl]-2-ethylpiperazin-1-yl]-2′-ethoxy-N-[(1-methylazetidin-3-yl)methyl]-[2,3′-bipyridine]-6-carboxamide] was < 10 nM; that for `CCOc1ccccc1-c1ccc(N2CCN(C(=O)c3ccc(C(F)(F)F)cc3Cl)C[C@H]2CC)c(C(=O)NCCCN)c1` [Compound 1-23, N-(3-aminopropyl)-4-[(2R)-4-[2-chloro-4-(trifluoromethyl)benzoyl]-2-ethylpiperazin-1-yl]-2′-ethoxy-[1,1′-biphenyl]-3-carboxamide] was 10 to 100 nM; that for `CCOc1ncccc1-c1ccc(N2CCN(C(=O)N3CCc4cccc(C(F)(F)F)c43)C[C@H]2CC)c(C(=O)N[C@@H]2CCNC2)n1` [Compound 1-361, 2′-ethoxy-5-[(2R)-2-ethyl-4-[7-(trifluoromethyl)-2,3-dihydro-1H-indole-1-carbonyl]piperazin-1-yl]-N-[(3R)-pyrrolidin-3-yl]-[2,3′-bipyridine]-6-carboxamide] was < 10 nM.
With `CCOc1ncccc1-c1ccc(N2CCN(C(=O)c3c(F)cc(C)cc3-c3ccc(CN)cc3)C[C@H]2CC)c(C(=O)NCCN)c1` [Compound 1-44, N-(2-aminoethyl)-2-[(2R)-4-[4′-(aminomethyl)-3-fluoro-5-methyl-[1,1′-biphenyl]-2-carbonyl]-2-ethylpiperazin-1-yl]-5-(2-ethoxypyridin-3-yl)benzamide], the Ki was < 10 nM.
The value for `CCOc1ccccc1-c1ccc(N2CCN(C(=O)c3c(F)cc(C)cc3-c3ccc(CN)cc3)C[C@H]2CC)c(C(=O)NCCN)c1` [Compound 1-27, N-(2-aminoethyl)-4-[(2R)-4-[4′-(aminomethyl)-3-fluoro-5-methyl-[1,1′-biphenyl]-2-carbonyl]-2-ethylpiperazin-1-yl]-2′-ethoxy-[1,1′-biphenyl]-3-carboxamide] was < 10 nM; that for `CCOc1ccccc1-c1ccc(N2CCN(C(=O)n3ccc4cccc(Cl)c43)C[C@H]2CC)c(C(=O)N[C@@H]2CCN(C)C2)n1` [Compound 1-431, 3-[(2R)-4-(7-chloro-1H-indole-1-carbonyl)-2-ethylpiperazin-1-yl]-6-(2-ethoxyphenyl)-N-[(3R)-1-methylpyrrolidin-3-yl]pyridine-2-carboxamide] was < 10 nM; that for `CCOc1ncccc1-c1ccc(N2CCN(C(=O)N3CCC[C@H]3c3cccc(F)c3)C[C@H]2CC)c(C(=O)N[C@@H]2CCN(C)C2)n1` [Compound 1-381, 2′-ethoxy-5-[(2R)-2-ethyl-4-[(2S)-2-(3-fluorophenyl)pyrrolidine-1-carbonyl]piperazin-1-yl]-N-[(3R)-1-methylpyrrolidin-3-yl]-[2,3′-bipyridine]-6-carboxamide] was < 10 nM.
Next, `CCOc1ncccc1-c1ccc(N2CCN(C(=O)c3ccc(Cl)cc3C(F)(F)F)C[C@H]2CC)c(C(=O)N[C@H]2CCCNC2)c1` [Compound 1-100, 2-[(2R)-4-[4-chloro-2-(trifluoromethyl)benzoyl]-2-ethylpiperazin-1-yl]-5-(2-ethoxypyridin-3-yl)-N-[(3 S)-piperidin-3-yl]benzamide]: < 10 nM.
As to `CCOc1ccccc1-c1ccc(N2CCN(C(=O)[C@H]3CC[C@@H](C(F)(F)F)CC3)C[C@H]2CC)c(C(=O)N[C@@H]2CCNC2)n1` [Compound 1-335, 6-(2-ethoxyphenyl)-3-[(2R)-2-ethyl-4-[cis-4-(trifluoromethyl)cyclohexanecarbonyl]piperazin-1-yl]-N-[(3R)-pyrrolidin-3-yl]pyridine-2-carboxamide], the Ki is < 10 nM.
Turning to `CCOc1ncccc1-c1ccc(N2CCN(C(=O)c3ccc(Cl)cc3C(F)F)C[C@H]2CC)c(C(=O)NCCNC)c1F` [Compound 1-183, 6-[(2R)-4-[4-chloro-2-(difluoromethyl)benzoyl]-2-ethylpiperazin-1-yl]-3-(2-ethoxypyridin-3-yl)-2-fluoro-N-[2-(methylamino)ethyl]benzamide], the Ki was < 10 nM.
With `CCOc1ncccc1-c1ccc(N2CCN(C(=O)c3ccc(C)cc3N3CC[C@H](N(C)C)C3)C[C@H]2CC)c(C(=O)NCCN)c1` [Compound 1-68, N-(2-aminoethyl)-2-[(2R)-4-{2-[(3S)-3-(dimethylamino)pyrrolidin-1-yl]-4-methylbenzoyl}-2-ethylpiperazin-1-yl]-5-(2-ethoxypyridin-3-yl)benzamide], the Ki is < 10 nM.
Next, `CCOc1ncccc1-c1ccc(N2CCN(C(=O)c3ccc(Cl)cc3C(F)(F)F)C[C@H]2CC)c(C(=O)N[C@H]2CCNC2)c1F` [Compound 1-200, 6-[(2R)-4-[4-chloro-2-(trifluoromethyl)benzoyl]-2-ethylpiperazin-1-yl]-3-(2-ethoxypyridin-3-yl)-2-fluoro-N-[(3S)-pyrrolidin-3-yl]benzamide]: < 10 nM.
